Reference: patent US5354748A, “Oral antibacterial compositions and method for the improvement of gastrointestinal absorption of penem or carbapenem antibiotics” (Suntory Limited, priority 1991, dated 1994)
Where two headings read alike, the source gives them in different places.

Experiments:
[1] = Plasma concentration and urinary excretion of penem in dogs, capsules with glutathione (Example 7); assay type: in vivo; details: dog, po, 75 mg; for AUC at 4 h / Cmax: plasma
Protocol: Namely, the penemcarboxylate and glutathione were mixed in amounts of 75 mg (titer) and 75, 15 or 3.75 mg, respectively, per capsule. The resultant mixed powder was filled in a capsule. Capsules were prepared in the manner described above.

[2] = Oral absorption of penem in rats with simultaneous administration of cilastatin (Example 3); assay type: in vivo, Sprague-Dawley male rats; details: rat; for AUC at 2 h / Cmax / bioavailability: plasma, po, 57.1 mg/kg, oral 57.1 mg (titer)/Kg; for bioavailability: read-out: Absorption (Oral Absorption Percentage A)
Protocol: Those compositions were separately and orally administered to seven-week-old, Sprague-Dawley male rats to give a dose of 57.1 mg (titer)/Kg in terms of the penem carboxylate. The blood was drawn from the femoral artery via a polyethylene catheter over 2.0 hours after the administration.

[3] = Plasma concentration of penem in rats, oral penem with oral N-acetyl-L-cysteine (Example 8); assay type: in vivo, Sprague-Dawley male rats; details: rat, 57.1 mg/kg, oral 57.1 mg (titer)/Kg
Protocol: Seven-week-old Sprague-Dawley male rats were orally administered with 57.1 mg (titer)/Kg of sodium (1'R,2"R,5R,6S)-6-(1'-hydroxyethyl)-2-(2"-tetrahydrofuranyl)penem-3-carboxylate 2.5 hydrate. At the same time, N-acetyl-L-cysteine was orally administered at 57.1 mg/Kg. The blood was collected during the period of from 0.1 to 2.0 hours after the administration.
The concentrations of the free acid of the penem in plasma samples were measured by high performance liquid chromatography (HPLC) to determine the highest concentration in plasma and the area under the plasma concentration: time curve (AUC).

[4] = Plasma concentration of penem in rats, oral penem with oral glutathione (Example 6); assay type: in vivo, Sprague-Dawley male rats; details: rat; for AUC at 2 h / Cmax: plasma, po, 57.1 mg/kg, oral 57.1 mg (titer)/Kg
Protocol: Seven-week-old Sprague-Dawley male rats were orally administered with 57.1 mg (titer)/Kg of sodium (1'R,2"R,5R,6S)-6-(1'-hydroxyethyl)-2-(2"-tetrahydrofuranyl)penem-3-carboxylate 2.5 hydrate. At the same time, glutathione was orally administered at 57.1 or 5.71 mg/Kg. The blood was collected during the period of from 0.1 to 2.0 hours after the administration. The concentrations of the free acid of the penem in plasma samples were measured by high performance liquid chromatography (HPLC) to determine the highest concentration in plasma and the area under the plasma concentration:time curve (AUC).

[5] = dog, in vivo
Protocol: Capsules were prepared by filling capsules with a 12.6:1 or 126:1 (by molar ratio) mixture of sodium (1'R,2"R,5R,6S)-6-(1'-hydroxyethyl)-2-(2"-tetrahydrofuranyl)penem-3-carboxylate 2.5 hydrate and cilastatin, namely, with a powder mixture consisting of 75 mg of the penem carboxylate and 7.5 or 0.75 mg of cilastatin per capsule. One of the capsules was orally administered to matured dogs. The blood was collected during the period of from 0.25 to 4 hours after the administration, and the concentrations of the free acid of the penem in plasma samples were measured by HPLC. Further, urine samples were collected until 24 hours after the administration and the concentrations of the free acid of the penem in the urine samples were measured by HPLC.
The area under the concentration:time curve (AUCpO) Of the compound contained in the plasma after its oral administration was compared to the area under the concentration:time curve (AUCiv) when the penemcarboxylate alone was intravenously administered at 10 mg/Kg and, assuming AUCiv be 100%, the percentage of AUCpo was calculated in accordance with the following formula and recorded as Oral Absorption Percentage A. Similarly, assuming that the percentage of excretion of the above penemcarboxylate into urine (Uiv) upon its intravenous administration at 10 mg/Kg be 100%, Oral Absorption Percentage B was calculated in accordance with the following formula from the percentage of excretion of the penemcarboxylate into urine upon its oral administration (Upo).
Oral absorption A (%)=AUCpo/AUCiv×10/75×100
Oral absorption B (%)=Upo/Uiv×100

[6] = in vivo; design: species or system Sprague-Dawley male rats; details: rat, plasma, iv, 11.4 mg/kg, intravenous penem 11.4 mg (titer)/Kg
Protocol: The blood was collected during the period of from 0.1 to 1.5 hours after the administration. The concentrations of the free acid of the penem in plasma samples were measured by high performance liquid chromatography (HPLC) to determine the area under the plasma concentration:time curve (AUC).

[7] = Plasma concentration and urinary excretion of penem in dogs, capsules with glutathione (Example 7); assay type: in vivo; details: dog; for AUC at 4 h / Cmax: plasma; for AUC at 4 h / Cmax / dose excreted at 24 h: po, 75 mg, oral capsule 75 mg (titer); for dose excreted at 24 h: urine, read-out: Excretion into urine
[8] = single administration (penem alone)
[9] = single administration (penem alone), read-out: Highest concentration in plasma
[10] = penem:glutathione molar ratio 11:1
[11] = penem:glutathione molar ratio 11:1, read-out: Highest concentration in plasma

Structure (SMILES): C[C@@H](O)[C@H]1C(=O)N2C(C(=O)O)=C([C@H]3CCCO3)S[C@H]12 [sodium (1'R,2"R,5R,6S)-6-(1'-hydroxyethyl)-2-(2"-tetrahydrofuranyl)penem-3-carboxylate 2.5 hydrate]
- AUC at 4 h ([1]; oral capsule 75 mg (titer), penem:glutathione molar ratio 1.1:1): 33700 ng·h/mL
- Cmax ([1]; oral capsule 75 mg (titer), penem:glutathione molar ratio 1.1:1, read-out: Highest concentration in plasma): 22700 ng/mL
- Cmax ([1]; oral, single administration (penem alone), read-out: Highest concentration in plasma): 11600 ng/mL
- AUC at 4 h [1, 8]: 17700 ng·h/mL
- dose excreted at 24 h ([1]; urine, oral, single administration (penem alone), up to 24 hours, read-out: Excretion into urine): 16.7%
- Increase of oral absorption percentage relative to single administration ([2]; oral, cilastatin 1/2000 of the penem carboxylate): 2.5 times
- AUC at 2 h ([2]; penem:cilastatin molar ratio 1:1): 25900 ng·h/mL
- Cmax ([2]; penem:cilastatin molar ratio 1:1, read-out: Highest concentration in plasma): 12400 ng/mL
- bioavailability ([2]; penem:cilastatin molar ratio 1:1, vs AUCiv): 114%
- AUC at 2 h ([2]; penem:cilastatin molar ratio 10:1): 19600 ng·h/mL
- Cmax ([2]; penem:cilastatin molar ratio 10:1, read-out: Highest concentration in plasma): 12700 ng/mL
- bioavailability ([2]; penem:cilastatin molar ratio 10:1, vs AUCiv): 86.3%
- AUC at 2 h ([2]; penem:cilastatin molar ratio 100:1): 21100 ng·h/mL
- Cmax ([2]; penem:cilastatin molar ratio 100:1, read-out: Highest concentration in plasma): 8680 ng/mL
- bioavailability ([2]; penem:cilastatin molar ratio 100:1, vs AUCiv): 93%
- AUC at 2 h ([2]; penem:cilastatin molar ratio 300:1): 18300 ng·h/mL
- Cmax ([2]; penem:cilastatin molar ratio 300:1, read-out: Highest concentration in plasma): 7890 ng/mL
- bioavailability ([2]; penem:cilastatin molar ratio 300:1, vs AUCiv): 80.3%
- AUC at 2 h ([2]; penem:cilastatin molar ratio 600:1): 14900 ng·h/mL
- Cmax ([2]; penem:cilastatin molar ratio 600:1, read-out: Highest concentration in plasma): 8080 ng/mL
- bioavailability ([2]; penem:cilastatin molar ratio 600:1, vs AUCiv): 65.6%
- AUC at 2 h ([2]; penem:cilastatin molar ratio 1000:1): 12200 ng·h/mL
- Cmax ([2]; penem:cilastatin molar ratio 1000:1, read-out: Highest concentration in plasma): 6890 ng/mL
- bioavailability ([2]; penem:cilastatin molar ratio 1000:1, vs AUCiv): 53.7%
- AUC at 2 h ([2]; penem:cilastatin molar ratio 2000:1): 10900 ng·h/mL
- Cmax ([2]; penem:cilastatin molar ratio 2000:1, read-out: Highest concentration in plasma): 7690 ng/mL
- bioavailability ([2]; penem:cilastatin molar ratio 2000:1, vs AUCiv): 48.1%
- AUC at 2 h [2, 8]: 4420 ng·h/mL
- Cmax [2, 9]: 4810 ng/mL
- bioavailability ([2]; single administration (penem alone), vs AUCiv): 19.4%
- AUC at 2 h ([3]; penem:N-acetyl-L-cysteine molar ratio 0.6:1): 5240 ng·h/mL
- Cmax ([3]; penem:N-acetyl-L-cysteine molar ratio 0.6:1, read-out: Highest concentration in plasma): 6790 ng/mL
- AUC at 2 h [3, 8]: 2520 ng·h/mL
- Cmax [3, 9]: 3290 ng/mL
- Increase of AUC relative to penem alone ([4]; oral, glutathione 1/11 of the penem): 1.2 times
- AUC at 2 h ([4]; penem:glutathione molar ratio 1.1:1): 6160 ng·h/mL
- Cmax ([4]; penem:glutathione molar ratio 1.1:1, read-out: Highest concentration in plasma): 5840 ng/mL
- AUC at 2 h [4, 10]: 5540 ng·h/mL
- Cmax [4, 11]: 5030 ng/mL
- AUC at 2 h [4, 8]: 4570 ng·h/mL
- Cmax [4, 9]: 4340 ng/mL
- Increase of oral absorption percentage (from AUC) relative to penemcarboxylate alone [5]: 2.3 times
- Oral absorption A [5]: 33.9%
- Increase of oral absorption percentage (from excretion into urine) relative to penemcarboxylate alone ([5]; 1440 min): 2.3 times
- Oral absorption B ([5]; 24 h): 38.6%
- Highest concentration in plasma ([5]; po): 11.86 µg/mL
- AUC ([5]; po, 4 h): 18620 ng·h/mL
- Excretion into urine ([5]; po, 24 h): 16.58%
- AUC at 1.5 h ([6]; cilastatin 0 (penem alone)): 7170 ng·h/mL
- AUC at 1.5 h ([6]; cilastatin 0.0717 mg/Kg oral): 6860 ng·h/mL
- AUC at 1.5 h ([6]; cilastatin 0.717 mg/Kg oral): 5670 ng·h/mL
- AUC at 1.5 h ([6]; cilastatin 7.17 mg/Kg oral): 6740 ng·h/mL
- Increase of AUC relative to single administration ([7]; oral, glutathione 1/110 of the penemcarboxylate): 1.2 times
- AUC at 4 h [7, 10]: 25400 ng·h/mL
- Cmax [7, 11]: 18000 ng/mL
- AUC at 4 h ([7]; penem:glutathione molar ratio 110:1): 21900 ng·h/mL
- Cmax ([7]; penem:glutathione molar ratio 110:1, read-out: Highest concentration in plasma): 14700 ng/mL
- dose excreted at 24 h ([7]; penem:glutathione molar ratio 11:1, up to 24 hours): 20.7%
- dose excreted at 24 h ([7]; penem:glutathione molar ratio 110:1, up to 24 hours): 19.9%
